Data published in BigSolDB 2.1.

Cc1[nH]c(=O)c(C#N)cc1-c1ccncc1
solubility (mole fraction)
Conditions	278.15 K	283.15 K	288.15 K	293.15 K	298.15 K	303.15 K	308.15 K	313.15 K	318.15 K	323.15 K
in DMF	7.95e-05	9.2e-05	0.000109	0.000129	0.000149	0.000173	0.000199	0.000225	0.000251	0.000285
in ethanol	9.24e-06	1.13e-05	1.35e-05	1.58e-05	1.84e-05	2.13e-05	2.43e-05	2.74e-05	3.1e-05	3.5e-05
in ethylene glycol	1.72e-05	2.09e-05	2.46e-05	2.89e-05	3.37e-05	3.89e-05	4.4e-05	5.03e-05	5.66e-05	6.44e-05
in isopropanol	2.44e-05	2.89e-05	3.43e-05	4.03e-05	4.73e-05	5.4e-05	6.16e-05	7.07e-05	7.92e-05	9.02e-05
in water	4.99e-07	5.98e-07	7.1e-07	8.34e-07	9.77e-07	1.12e-06	1.27e-06	1.44e-06	1.64e-06	1.85e-06
